Laboratory results reported in patent publication US10955415B2, “CD247 as a biomarker for assessing the effect of chemotherapeutic and biological drugs” (YISSUM RESEARCH DEVELOPMENT COMPANY OF THE HEBREW …, priority 2011, dated 2021).
Entries after “also recorded” stand apart in the source; their conditions may differ.

What was measured:
MDSCs (Gr1+CD11b+) [1] = experiment: MDSC accumulation in spleen and PBLs, AOM/DSS colorectal cancer (CRC) mouse model; assay type: in vivo; conditions: CRC (AOM/DSS) mice, i.p., vs untreated CRC group
Source text: The mouse model for CRC was used as described in Experimental procedures. […] Mice were sacrificed at week +11, three weeks after the second DSS treatment. […] Graphs represent the percent of MDSCs presented within the spleen (FIG. 21A) and PBLs (FIG. 21C). Data from three independent experiments (n=3) is presented. […] Means and SEM are shown. *, P<0.05; **, P<0.01; ***, P<0.001.
The mouse model for CRC was established by two repeated injections of azoxymethane (AOM) (Sigma) in intervals of two weeks followed by two weekly administrations of DSS (Sigma) that was added to drinking water every two weeks for duration of about seven days. […] Mice were sacrificed at week +11, three weeks after the second DSS treatment.

colorectal cancer (CRC) = experiment: Survival, colon structure and tumor loads of CRC-bearing mice; assay type: in vivo
Procedure: Survival of mice CRC, CRC-5-FU or CRC-5FU/CPT-11 treatment is shown as Kaplan-Meyer curve (n=20). Time points of AOM injections and the period of DSS addition are represented by gray arrows and lines, respectively. Start point of chemotherapy treatment and continual boosts are shown as black arrows.
The mouse model for CRC was established by two repeated injections of azoxymethane (AOM) (Sigma) in intervals of two weeks followed by two weekly administrations of DSS (Sigma) that was added to drinking water every two weeks for duration of about seven days. In order to test the influence of chemotherapeutic drugs on the induced-chronic inflammatory environment in a CRC model, after the second DSS treatment mice were randomized into three groups (n=10 mice) as follows: CRC control group, CRC and 5-FU i.p inoculated group and CRC and CPT-11 i.p inoculated group. Mice were sacrificed at week +11, three weeks after the second DSS treatment.
It important to note that in each of the experiments performed (presented in FIG. 21 and FIG. 22), pathological macroscopic and microscopic tests have been performed on the structure of the colon and counts were made of the tumor loads.

[2] = test system: CD247 in NK (NCR1+) cells; experiment: CD247 expression in gated NK (NCR1+) cells from spleen; assay type: in vivo; conditions: spleen of BCG-inflamed mice, monotherapy
Procedure: FIG. 2E. CD247 expression was measured gating on NK (NCR1+) cells derived from the spleens of each group. Data from three independent experiments is presented (n=4). Statistical analyses using t test indicated significant differences at 95% Cl. Means and SEM are shown. *, P<0.05.
Isolated splenocytes and peripheral blood leukocytes (PBLs) were treated with erythrocyte lysis buffer and washed in PBS. Cells were pre-coated with anti-CD16/CD32 (Biolegend) for FcR blockage. For surface staining, cells were incubated for 30 min at 4° C. with FITC-labeled anti-Gr1, anti-CD11c, and anti-CD4; PE-labeled anti F4/80, anti-CD3ε, anti-CD45R/B220, and anti-mNKp46; and biotinylated anti-CD11b and anti-CD8 that were detected with streptavidin-Cy5 (Biolegend and eBioscience). Intracellular staining of CD247 cells was performed by subjecting the cells to fixation with paraformaldehyde (1%) for 20 min at 4° C., followed by washing and permeabilization for 10 min with saponin detergent (0.1%) at room temperature (RT). Cells were then washed and incubated with FITC-labeled monoclonal anti-CD247 (H146) (Abcam), or biotinylated monoclonal anti-CD247 (H146), which were subsequently detected with streptavidin-Cy5. FoxP3 staining was performed according to the manufacturer's instructions. Samples were analyzed using FACSCalibur with Cell Quest software (BD).

CD3ε chain = test system: CD3ε chain; set-up: species or system mice; conditions: mouse, in vivo
CD4+Foxp3+ Treg cells = test system: CD4+Foxp3+ Treg cells; set-up: species or system mice; conditions: mouse, in vivo
CD247 = experiment: Adoptive transfer of CFSE-labeled normal splenocytes, CD247 in host and donor cells; assay type: in vivo, mice; conditions: BCG-inflamed hosts, 24 h after transfer, spleen
Procedure: CFSE-labeled splenocytes from normal mice (donor cells) were adoptively transferred into mice untreated, inflamed, and inflamed treated i.p. with irinotecan (hosts). After 24 h, splenocytes from each group were harvested and stained for CD247 expression (MFI) in CD3+ T cells within the CFSE+ (donor-cell) or CFSE− (host-cell) population. Data from three independent experiments (n=4) is presented. Statistical analyses using t test indicated significant differences at 95% Cl. Means and SEM are shown. * P<0.05. Abbreviations: Ho. (host), Do. (donor), cont. (control).
CFSE-labeled splenocytes from normal mice (donor cells) were adoptively transferred into non-inflamed, inflamed, and inflamed mice treated i.p. with 5-FU (hosts). After 24 h, splenocytes from each group were harvested and stained for CD247 expression (MFI) in CD3+ T cells within the CFSE+ (donor-cell) or CFSE− (host-cell) population. Data from three independent experiments (n=4) is presented. Statistical analyses using t test indicated significant differences at 95% Cl. Means and SEM are shown. *, P<0.05. Abbreviations: Ho. (host), Do. (donor), cont. (control).
Next, the effect of etanercept treatment on the host's immune status as well as on adoptively transferred T- and NK-cells was examined. It should be noted that adoptively transferred T- and NK-cells being a treatment that is frequently used today in different immunotherapeutic regiments for various pathologies. To this end, CFSE-labeled normal splenocytes were administered, i.v., 1 day before cell harvest, at the peak of the inflammatory response (mimicking cell mediated therapies).

CD247 (ζ chain) = test system: CD247 (ζ chain); set-up: species or system mice; conditions: mouse, in vivo
S100A8/9 = S100A8/9 mRNA and S100A9 immunoblot in purified MDSCs and total spleen; assay type: in vivo; conditions: purified MDSCs and total splenic population, BCG-inflamed mice; for S100A9 protein levels: immunoblot
Source text: FIG. 17A. Purified MDSCs from spleens (n=4); and FIG. 17B. A total spleen population was used to analyze mRNA levels of S100A8/9 (left), and to perform immunoblotting of S100A9 (right) following the course of chronic inflammation alone, chronically inflamed mice treated with 5-FU or CPT11 (n=4), α-Tubulin levels served as a control.
Analyses used either the splenocyte population or peripheral blood as mentioned above. Cells (5×10^7/ml, or 1×10^6/ml) were lysed with Tris-NaCl buffer containing 0.5% Triton X-100 and protease inhibitors for 30 min on ice. Proteins were resolved on 12% SDS-PAGE and subjected to immunoblotting analysis using the following specific antibodies: anti-CD247, antiCD3ε antibodies, anti-S100A9, anti-S100A8, anti-iNOS, anti-ARG1, and anti-αTubulin antibodies. Specific antibodies were detected by incubation with protein A (Amersham), anti-rat or anti-goat antibodies conjugated to horseradish peroxidase (Jackson Immunoresearch), followed by enhanced chemiluminescence and exposure to Kodak X-ray films.
Total RNA was recovered from splenocytes or isolated MDSCs using Tri-Reagent (Sigma) and was subjected to reverse transcription with m-MLV-RT (Invitrogen) and random primers (IDT). Quantitative mRNA expression was analyzed by real-time PCR (ABI 7900), with SYBR green (Invitrogen). RT-PCR primers were designed to recognize an exon-exon boundary in all transcripts.

MDSCs (Gr1+CD11b+) [3] = test system: MDSCs (Gr1+CD11b+); set-up: species or system mice; conditions: mouse, in vivo
TNFα, IL-6, IFNγ = experiment: Real Time PCR of inflammatory cytokines in MDSCs and total splenocytes; assay type: in vivo, mice; conditions: relative to inflamed untreated; for mRNA levels of TNFα and IL-6: spleen-derived MDSCs and total splenocytes

Structure (SMILES)	MDSC percentage in PBLs (MDSCs (Gr1+CD11b+) [1])	MDSC percentage in spleen (MDSCs (Gr1+CD11b+) [1])	survival of CRC mice (Kaplan-Meyer) (colorectal cancer (CRC))	curable effects on colon structure and tumor loads (colorectal cancer (CRC); macroscopic and microscopic pathology)	CD247 expression in NK (NCR1+) cells [2]	CD3ε expression levels (CD3ε chain)	levels of Treg cells (CD4+Foxp3+) in spleen (CD4+Foxp3+ Treg cells)	CD247 expression in host and adoptively transferred donor T cells (CD247)	CD247 expression in T cells, PBLs (CD247 (ζ chain))	CD247 expression in T cells, spleen (CD247 (ζ chain))	mRNA levels of S100A8/9 (S100A8/9)	S100A9 protein levels (S100A8/9)	MDSC levels in peripheral blood (PBLs) (MDSCs (Gr1+CD11b+) [3])	MDSC levels in the spleen (MDSCs (Gr1+CD11b+) [3])	mRNA levels of TNFα and IL-6 (TNFα, IL-6, IFNγ)	CD247 expression in NK (NCR1+) cells ([2]; listed as CPT11)	CD247 expression in NK (NCR1+) cells ([2]; listed as CPT-11)	mRNA level of IFNγ (TNFα, IL-6, IFNγ; MDSCs and total spleen-population)
O=c1[nH]cc(F)c(=O)[nH]1 [5-FU, 5-Fluorouracil]	significant decrease	significant decrease	increased survival	observed	recovery from immunosuppression; also recorded: almost completely recovered	rather constant; also recorded: not down regulated	remained unchanged	clear significant increase	significant recovery	recovered significantly; also recorded: significant recovery	significant decrease	decreased amounts	significant decline; also recorded: decrease; also recorded: reduced	significant decline; also recorded: decrease; also recorded: reduced	no significant changes	–	–	–
CCc1c2c(nc3ccc(OC(=O)N4CCC(N5CCCCC5)CC4)cc13)-c1cc3c(c(=O)n1C2)COC(=O)[C@]3(O)CC [Irinotecan]	no changes	significantly increased	reduced survival rate	–	–	remained unchanged; also recorded: not down regulated	remained unchanged	significant further decrease	further significantly decreased; also recorded: tendency of decreased expression	further significantly decreased; also recorded: strong down-regulation	no significant changes	remained high	remained high; also recorded: no changes	significantly enhanced; also recorded: significantly increased	no significant changes	low CD247 expression	remained down-regulated with no further decrease	decreased
